The values below come from patent publication US20260078121A1, “INHIBITORS OF ENL/AF9 YEATS AND FLT3” (Bridge Medicines, priority 2022, published 2026).

Assay [1] relates to MV4:11 (MLL-AF4 MLL) cells. As to the kind of experiment: Cell viability assay (CellTiter-Glo), 12 days. Type of assay: cell-based. The note with it: Homo sapiens, 288 h, MV4:11 cells, cells split on days 4 and 8, CellTiter-Glo readout, read-out: MV4:11, 12 Day IC50. Here is the method:
Cell-based assays were used to assess the ability of test compounds to reduce cell viability in both MV4:11 (MLL-AF4 MLL) and K562 cells, which were cultured in Iscove's Modified Dulbecco's medium (Gibco, 12440061) containing 10% FBS. The assays were conducted over 12 days and the cells being split on days 4 and 8. Compound concentration response curves were performed in duplicate over the concentration range of 0.15 nM-30 μM. On day 0, the compounds or vehicle were plated in a 300 nL directly into 96 well cell culture plates (Corning, 3599) with 5000 cells/well in a volume of 100 μL. Blank wells received cell culture medium. Plates were incubated for 4 days at 37° C. with 5% CO2. On days 4 and day 8 the cells were split and incubated for a further 4 days whilst an aliquot of cells were taken for the CTG readout. For the cell splitting, 270 nL of compounds or DMSO was added to a new 96 well cell culture plate to which 90 μL of medium plus 10 μL of cells from the original assay plate (after mixing) or 100 μL of medium (Blank wells) was added. This was repeated on day 8.
Cell viability was assessed using the CellTiter-Glo® homogeneous luminescent assay kit (Promega, G9243), according to the manufacturer's instructions. This quantifies ATP, which indicates the presence of metabolically active cells. On days 4, 8 and 12, 20 μl of the remaining cell suspension was aspirated into 384-well plate (Corning 3570) to which an equal volume CellTiter-Glo reagent was. Plates were incubated for 10 minute incubation at RT prior to recording the luminescence signal using EnVision plate reader (PE, 2104). The resulting data were analyzed as follows:
where vehicle are cells treated with 0.3% DMSO, Blank is culture medium. IC50 determinations were calculated by fitting the curve using XLfit (v5.3.1.3): Y=Bottom+(Top−Bottom)/(1+10^((Log IC50−X)*HillSlope)).

A further assay concerns the target T1, FLT3 (Homo sapiens, UniProt P36888).
T1 construct: purchased Carna 08-154
T1 sequence (P36888 27-993): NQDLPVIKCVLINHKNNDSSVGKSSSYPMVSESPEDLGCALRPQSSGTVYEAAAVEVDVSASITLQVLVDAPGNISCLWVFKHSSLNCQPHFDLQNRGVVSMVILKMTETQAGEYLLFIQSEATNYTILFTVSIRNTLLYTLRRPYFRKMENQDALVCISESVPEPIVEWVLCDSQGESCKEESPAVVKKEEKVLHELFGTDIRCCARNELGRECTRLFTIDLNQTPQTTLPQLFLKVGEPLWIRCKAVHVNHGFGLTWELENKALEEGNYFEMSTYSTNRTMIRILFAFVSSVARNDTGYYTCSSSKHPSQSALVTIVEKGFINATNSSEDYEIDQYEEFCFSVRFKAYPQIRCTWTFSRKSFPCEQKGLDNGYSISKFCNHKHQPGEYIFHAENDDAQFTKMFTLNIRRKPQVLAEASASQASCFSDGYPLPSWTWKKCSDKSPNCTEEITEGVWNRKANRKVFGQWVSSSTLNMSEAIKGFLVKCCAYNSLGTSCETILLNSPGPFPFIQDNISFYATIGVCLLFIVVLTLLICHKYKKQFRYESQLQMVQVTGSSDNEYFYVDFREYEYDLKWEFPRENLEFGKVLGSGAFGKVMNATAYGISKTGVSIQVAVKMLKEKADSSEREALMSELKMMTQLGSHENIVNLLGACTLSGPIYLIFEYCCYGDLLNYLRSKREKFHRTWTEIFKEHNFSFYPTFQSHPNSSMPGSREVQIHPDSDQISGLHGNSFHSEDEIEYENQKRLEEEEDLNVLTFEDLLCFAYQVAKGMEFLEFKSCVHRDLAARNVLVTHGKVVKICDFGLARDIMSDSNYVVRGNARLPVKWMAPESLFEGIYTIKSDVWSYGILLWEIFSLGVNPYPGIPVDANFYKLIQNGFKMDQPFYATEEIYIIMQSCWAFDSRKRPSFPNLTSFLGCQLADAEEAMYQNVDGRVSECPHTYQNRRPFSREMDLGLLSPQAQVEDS
Nature of the assay: FLT3 Inhibition Assay. Type of assay: biochemical. The note with it: FL Peptide 2 substrate, 30 min preincubation, 90 min at room temperature, Caliper EZ reader. Here is the method:
Starting with a 10 mM stock solution, each test compound was serially diluted into 10 concentrations by 3-fold dilution using TECAN EVO200. 60 nL of each stock was transferred to a 384 plate using Echo550.
Solution 1 was prepared as the table above and used to dilute the FLT3, ATP and FL2 stock to 0.9379 nM (1.33×), 400 μM (4×) and 6 μM (4×) respectively. The FLT3 solution (15 μL) at 25° C. was added to each well, shaken for 1 min and preincubated with test compound and controls for 30 min. To each well, 5 μL of ATP and FL-Peptide2 solutions, as prepared above, were added and the plate was shaken for 10 seconds, then spun briefly at 1000 rpm, then incubated for 90 minutes at room temperature. The plate was read on Caliper EZ reader, and the IC50 values were calculated using XLfit (equation below).
[formula] • LumSample: Test compound signal • LumLC: Low control signal • LumHC: High control signal

For another assay, the target named is T2, ENL YEATS domain (Homo sapiens, UniProt Q03111).
T2 construct: ENL Protein (6×HIS ENL YEATS Domain, EpiCypher, 15-0069); purchased EpiCypher 15-0069
T2 sequence (Q03111 1-138 limits assumed): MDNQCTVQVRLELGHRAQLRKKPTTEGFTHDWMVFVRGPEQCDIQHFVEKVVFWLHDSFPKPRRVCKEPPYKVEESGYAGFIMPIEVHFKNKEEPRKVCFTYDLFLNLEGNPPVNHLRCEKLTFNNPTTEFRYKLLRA
Nature of the assay: TR-FRET ENL Screening Assay. The note with it: 6×HIS ENL YEATS domain binding to biotinylated H3K9cr peptide (aa1-20). The method, then:
Compounds of the invention were tested in a TR-FRET ENL Screening Assay. TR-FRET (time-resolved fluorescence energy transfer) can be used to quantify ENL YEATS domain binding to a crotonylated histone peptide (H3K9cr, aa1-20). Streptavidin-Europium (Eu) chelate binds the biotinylated peptide, while Anti-6×HIS ULight™ binds 6×HIS-ENL. When Eu chelate is excited at 320 nm, fluorescence resonance energy transfer (FRET) occurs if Eu and ULight are made proximal by ENL binding to the acyl-peptide. ULight emission (FRET) is measured at 665 nm and normalized to the Eu emission at 615 nm to reduce variability between wells.
Compounds of the invention were dissolved in DMSO at a concentration of 3 mM with subsequent dilutions in assay buffer (50 mM HEPES PH 7.0, 150 mM NaCl, 0.05% BSA, 0.2% Pluronic F-127) such that the assay contained 1% DMSO. In a white 384 shallow well Microplate (Proxiplate-384 Plus, PerkinElmer, 6008280), 150 nL of compound or vehicle (1% DMSO in assay buffer) for the high control (HC) wells and 5 μL of 30 nM ENL Protein (6×HIS ENL YEATS Domain, EpiCypher, 15-0069) were combined and incubated 15 minutes at RT. Low control (LC) wells received 5 μL of assay buffer instead of ENL protein. Then 5 μL of 15 nM H3K9cr peptide (H3 aa1-20, biotinylated; EpiCypher, 12-0099) in assay buffer was added and incubated 30 minutes at RT. Finally, a 5 L mix of 45 nM Anti-6HIS ULight (PerkinElmer, TRF0105) and 1.5 nM Streptavidin-Europium Chelate (PerkinElmer, AD0060) were added and incubated for a further 30 minutes at RT. The TR-FRET signal (665 nm signal/615 nm signal×10,000) was measured using a PerkinElmer 2104 EnVision (Xenon Flash Lamp excitation, 320 nm±37.5 nm excitation filter, 407 nm cut off dichroic mirror, 615 nm±4.25 (Europium) nm and 665 nm+3.75 nM (ULight) emission filters). Compound concentration response curves were performed in duplicate over the concentration range of 0.15 nM-30 μM. The response at each compound concentration minus the LC value was converted to percent inhibition of the vehicle control group response (HC-LC).

With `Cc1cc2cnc(NC(=O)c3ccc(-c4cn[nH]c4)cn3)cc2[nH]1` [Example 1, N-(2-methyl-1H-pyrrolo[3,2-c]pyridin-6-yl)-5-(1H-pyrazol-4-yl)picolinamide], the values for the IC50 (in assay [1]; on FLT3) were 40 nM and 7 nM, respectively.

In the case of `CN1CCC[C@@H]1c1cc2cnc(NC(=O)c3ccc(-c4cn[nH]c4)cn3)cc2[nH]1` [Example 2, (R)-N-(2-(1-methylpyrrolidin-2-yl)-1H-pyrrolo[3,2-c]pyridin-6-yl)-5-(1H-pyrazol-4-yl)picolinamide], the IC50 in assay [1] is 19 nM; at FLT3, 7 nM.

On to `CN1CCC[C@H]1c1cc2cnc(NC(=O)c3ccc(-c4cn[nH]c4)cn3)cc2[nH]1` [Example 3, (S)-N-(2-(1-methylpyrrolidin-2-yl)-1H-pyrrolo[3,2-c]pyridin-6-yl)-5-(1H-pyrazol-4-yl)picolinamide], for which the IC50 in assay [1] worked out at 83 nM; on FLT3, 13 nM.

On to `CN1CCC[C@@H]1c1cc2cnc(NC(=O)c3ccc(-c4cn[nH]c4)cc3F)cc2[nH]1` [Example 4, (R)-2-fluoro-N-(2-(1-methylpyrrolidin-2-yl)-1H-pyrrolo[3,2-c]pyridin-6-yl)-4-(1H-pyrazol-4-yl)benzamide], for which the results for the IC50 (on ENL YEATS domain; in assay [1]) were 67 nM and 119 nM, respectively.

In the case of `CN1CCC[C@@H]1c1cc2cnc(NC(=O)c3ccc(-c4cn[nH]c4)cc3)cc2[nH]1` [Example 5, (R)-N-(2-(1-methylpyrrolidin-2-yl)-1H-pyrrolo[3,2-c]pyridin-6-yl)-4-(1H-pyrazol-4-yl)benzamide], the IC50 at ENL YEATS domain turned out to be 46 nM; in assay [1], 79 nM; against FLT3, 274 nM.

Take `CN1CCCC[C@@H]1c1cc2cnc(NC(=O)c3ccc(-c4cn[nH]c4)cc3)cc2[nH]1` [Example 6, (R)-N-(2-(1-methylpiperidin-2-yl)-1H-pyrrolo[3,2-c]pyridin-6-yl)-4-(1H-pyrazol-4-yl)benzamide]: the IC50 on ENL YEATS domain was found to be 64 nM; in assay [1], 138 nM.

Turning to `CN1CCCC[C@@H]1c1cc2cnc(NC(=O)c3ccc(-c4cn[nH]c4)cn3)cc2[nH]1` [Example 7, (R)-N-(2-(1-methylpiperidin-2-yl)-1H-pyrrolo[3,2-c]pyridin-6-yl)-5-(1H-pyrazol-4-yl)picolinamide], in assay [1], the IC50 worked out at 36 nM.

With `COCc1n[nH]cc1-c1ccc(C(=O)Nc2cc3[nH]c([C@H]4CCCN4C)cc3cn2)cc1` [Example 8, (R)-4-(5-(methoxymethyl)-1H-pyrazol-4-yl)-N-(2-(1-methylpyrrolidin-2-yl)-1H-pyrrolo[3,2-c]pyridin-6-yl)benzamide], the IC50 at ENL YEATS domain stood at 179 nM; in assay [1], 357 nM.

As to `CN1CCC[C@@H]1c1cc2cnc(NC(=O)c3ccc(-c4c[nH]nc4F)cc3)cc2[nH]1` [Example 9, (R)-4-(5-fluoro-1H-pyrazol-4-yl)-N-(2-(1-methylpyrrolidin-2-yl)-1H-pyrrolo[3,2-c]pyridin-6-yl)benzamide], the IC50 at ENL YEATS domain stood at 73 nM; in assay [1] it was 176 nM.
